Data reported in ChEMBL document CHEMBL3885881, “DrugMatrix”.

Organism: Rattus norvegicus
Assay: DrugMatrix - Regimen: Daily Repeat
Format: toxicity, organism-based, Sprague-Dawley
Set-up: regimen Daily Repeat, gender Male, age 6-8 weeks
Details: in vivo, po, route oral GAVAGE, vehicle .5 % CMC; for BASOPHIL / EOSINOPHIL / ERYTHROCYTE COUNT / HEMATOCRIT / HEMOGLOBIN / LEUKOCYTE COUNT / LYMPHOCYTE / MEAN CORPUSCULAR HEMOGLOBIN / MEAN CORPUSCULAR HEMOGLOBIN CONCENTRATION / MEAN CORPUSCULAR VOLUME / MONOCYTE / NEUTROPHIL / PLATELET COUNT: tissue Blood; for ALANINE AMINOTRANSFERASE / ALBUMIN / ALKALINE PHOSPHATASE / ASPARTATE AMINOTRANSFERASE / BLOOD UREA NITROGEN / CHLORIDE / CHOLESTEROL / CREATINE PHOSPHOKINASE / CREATININE / GLUCOSE / PHOSPHORUS / POTASSIUM / SODIUM / TOTAL PROTEIN: tissue Plasma
[1] = 0 mg/kg, 72 h, dose level Control, time 3 day
[2] = 0 mg/kg, 120 h, dose level Control, time 5 day
[3] = 30 mg/kg, 72 h, dose level Low, time 3 day
[4] = 30 mg/kg, 120 h, dose level Low, time 5 day
[5] = 1750 mg/kg, 72 h, dose level High, time 3 day
[6] = 1750 mg/kg, 120 h, dose level High, time 5 day

CC(=O)Oc1ccc(C(c2ccc(OC(C)=O)cc2)c2ccccn2)cc1 [BISACODYL]
BASOPHIL [1]: 0% | EOSINOPHIL [1]: 0.33% | ERYTHROCYTE COUNT [1]: 6.03 x10E6/uL | HEMATOCRIT [1]: 38.8% | HEMOGLOBIN [1]: 14.26 G/DL | LEUKOCYTE COUNT [1]: 10.64 x10E3/uL | LYMPHOCYTE [1]: 83.33% | MEAN CORPUSCULAR HEMOGLOBIN [1]: 23.64 pg | MEAN CORPUSCULAR HEMOGLOBIN CONCENTRATION [1]: 36.74 G/DL | MEAN CORPUSCULAR VOLUME [1]: 64.32 fL | MONOCYTE [1]: 3.33% | NEUTROPHIL [1]: 13% | PLATELET COUNT [1]: 1264.4 x10E3/uL | ALANINE AMINOTRANSFERASE [1]: 38.83 u/L | ALBUMIN [1]: 3.55 G/DL | ALKALINE PHOSPHATASE [1]: 368.33 u/L | ASPARTATE AMINOTRANSFERASE [1]: 66.17 u/L | BLOOD UREA NITROGEN [1]: 15.67 mg/dL | CHLORIDE [1]: 104.33 MEQ/L | CHOLESTEROL [1]: 76.5 mg/dL | CREATINE PHOSPHOKINASE [1]: 166.83 u/L | CREATININE [1]: 0.52 mg/dL | GLUCOSE [1]: 173.17 mg/dL | PHOSPHORUS [1]: 11.68 mg/dL | POTASSIUM [1]: 6.43 MEQ/L | SODIUM [1]: 149.5 MEQ/L | TOTAL PROTEIN [1]: 5.93 G/DL | BASOPHIL [2]: 0% | EOSINOPHIL [2]: 0% | ERYTHROCYTE COUNT [2]: 5.88 x10E6/uL | HEMATOCRIT [2]: 37.87% | HEMOGLOBIN [2]: 14.48 G/DL | LEUKOCYTE COUNT [2]: 12.43 x10E3/uL | LYMPHOCYTE [2]: 84.17% | MEAN CORPUSCULAR HEMOGLOBIN [2]: 24.65 pg | MEAN CORPUSCULAR HEMOGLOBIN CONCENTRATION [2]: 38.25 G/DL | MEAN CORPUSCULAR VOLUME [2]: 64.47 fL | MONOCYTE [2]: 4.33% | NEUTROPHIL [2]: 11.5% | PLATELET COUNT [2]: 1182.33 x10E3/uL | ALANINE AMINOTRANSFERASE [2]: 38.67 u/L | ALBUMIN [2]: 3.55 G/DL | ALKALINE PHOSPHATASE [2]: 342.5 u/L | ASPARTATE AMINOTRANSFERASE [2]: 63.33 u/L | BLOOD UREA NITROGEN [2]: 15.5 mg/dL | CHLORIDE [2]: 104 MEQ/L | CHOLESTEROL [2]: 75.5 mg/dL | CREATINE PHOSPHOKINASE [2]: 142.5 u/L | CREATININE [2]: 0.62 mg/dL | GLUCOSE [2]: 165.17 mg/dL | PHOSPHORUS [2]: 10.87 mg/dL | POTASSIUM [2]: 6.85 MEQ/L | SODIUM [2]: 150.17 MEQ/L | TOTAL PROTEIN [2]: 5.93 G/DL | BASOPHIL [3]: 0% | EOSINOPHIL [3]: 0% | ERYTHROCYTE COUNT [3]: 6.9 x10E6/uL | HEMATOCRIT [3]: 44.1% | HEMOGLOBIN [3]: 16.25 G/DL | LEUKOCYTE COUNT [3]: 9.75 x10E3/uL | LYMPHOCYTE [3]: 83% | MEAN CORPUSCULAR HEMOGLOBIN [3]: 23.55 pg | MEAN CORPUSCULAR HEMOGLOBIN CONCENTRATION [3]: 36.85 G/DL | MEAN CORPUSCULAR VOLUME [3]: 63.85 fL | MONOCYTE [3]: 4% | NEUTROPHIL [3]: 13% | PLATELET COUNT [3]: 1188.5 x10E3/uL | ALANINE AMINOTRANSFERASE [3]: 37.67 u/L | ALBUMIN [3]: 3.67 G/DL | ALKALINE PHOSPHATASE [3]: 281 u/L | ASPARTATE AMINOTRANSFERASE [3]: 63 u/L | BLOOD UREA NITROGEN [3]: 17 mg/dL | CHLORIDE [3]: 107 MEQ/L | CHOLESTEROL [3]: 72 mg/dL | CREATINE PHOSPHOKINASE [3]: 177 u/L | CREATININE [3]: 0.53 mg/dL | GLUCOSE [3]: 181 mg/dL | PHOSPHORUS [3]: 12.17 mg/dL | POTASSIUM [3]: 7.3 MEQ/L | SODIUM [3]: 152 MEQ/L | TOTAL PROTEIN [3]: 6.1 G/DL | BASOPHIL [4]: 0% | EOSINOPHIL [4]: 0.67% | ERYTHROCYTE COUNT [4]: 6.91 x10E6/uL | HEMATOCRIT [4]: 43.53% | HEMOGLOBIN [4]: 16.47 G/DL | LEUKOCYTE COUNT [4]: 13.9 x10E3/uL | LYMPHOCYTE [4]: 85% | MEAN CORPUSCULAR HEMOGLOBIN [4]: 23.9 pg | MEAN CORPUSCULAR HEMOGLOBIN CONCENTRATION [4]: 37.97 G/DL | MEAN CORPUSCULAR VOLUME [4]: 63 fL | MONOCYTE [4]: 3.33% | NEUTROPHIL [4]: 11% | PLATELET COUNT [4]: 1208 x10E3/uL | ALANINE AMINOTRANSFERASE [4]: 36.67 u/L | ALBUMIN [4]: 3.53 G/DL | ALKALINE PHOSPHATASE [4]: 306.33 u/L | ASPARTATE AMINOTRANSFERASE [4]: 66 u/L | BLOOD UREA NITROGEN [4]: 19 mg/dL | CHLORIDE [4]: 106.33 MEQ/L | CHOLESTEROL [4]: 70.33 mg/dL | CREATINE PHOSPHOKINASE [4]: 149.33 u/L | CREATININE [4]: 0.53 mg/dL | GLUCOSE [4]: 193.33 mg/dL | PHOSPHORUS [4]: 12.23 mg/dL | POTASSIUM [4]: 6.8 MEQ/L | SODIUM [4]: 151.67 MEQ/L | TOTAL PROTEIN [4]: 5.7 G/DL | BASOPHIL [5]: 0% | EOSINOPHIL [5]: 0% | ERYTHROCYTE COUNT [5]: 7.45 x10E6/uL | HEMATOCRIT [5]: 45.8% | HEMOGLOBIN [5]: 17.43 G/DL | LEUKOCYTE COUNT [5]: 12.3 x10E3/uL | LYMPHOCYTE [5]: 35.67% | MEAN CORPUSCULAR HEMOGLOBIN [5]: 23.5 pg | MEAN CORPUSCULAR HEMOGLOBIN CONCENTRATION [5]: 38.13 G/DL | MEAN CORPUSCULAR VOLUME [5]: 61.47 fL | MONOCYTE [5]: 13.67% | NEUTROPHIL [5]: 50.67% | PLATELET COUNT [5]: 1194 x10E3/uL | ALANINE AMINOTRANSFERASE [5]: 34 u/L | ALBUMIN [5]: 4.3 G/DL | ALKALINE PHOSPHATASE [5]: 166 u/L | ASPARTATE AMINOTRANSFERASE [5]: 53 u/L | BLOOD UREA NITROGEN [5]: 64 mg/dL | CHLORIDE [5]: 84 MEQ/L | CHOLESTEROL [5]: 44 mg/dL | CREATINE PHOSPHOKINASE [5]: 148 u/L | CREATININE [5]: 0.7 mg/dL | GLUCOSE [5]: 165 mg/dL | PHOSPHORUS [5]: 9.4 mg/dL | POTASSIUM [5]: 8.2 MEQ/L | SODIUM [5]: 131 MEQ/L | TOTAL PROTEIN [5]: 7.9 G/DL | BASOPHIL [6]: 0% | EOSINOPHIL [6]: 0% | ERYTHROCYTE COUNT [6]: 7.22 x10E6/uL | HEMATOCRIT [6]: 44.95% | HEMOGLOBIN [6]: 16.55 G/DL | LEUKOCYTE COUNT [6]: 14.05 x10E3/uL | LYMPHOCYTE [6]: 38% | MEAN CORPUSCULAR HEMOGLOBIN [6]: 22.95 pg | MEAN CORPUSCULAR HEMOGLOBIN CONCENTRATION [6]: 36.8 G/DL | MEAN CORPUSCULAR VOLUME [6]: 62.3 fL | MONOCYTE [6]: 6.5% | NEUTROPHIL [6]: 55.5% | PLATELET COUNT [6]: 1469 x10E3/uL | ALANINE AMINOTRANSFERASE [6]: 29 u/L | ALBUMIN [6]: 3.9 G/DL | ALKALINE PHOSPHATASE [6]: 258 u/L | ASPARTATE AMINOTRANSFERASE [6]: 36 u/L | BLOOD UREA NITROGEN [6]: 37 mg/dL | CHLORIDE [6]: 102.5 MEQ/L | CHOLESTEROL [6]: 71 mg/dL | CREATINE PHOSPHOKINASE [6]: 190 u/L | CREATININE [6]: 0.7 mg/dL | GLUCOSE [6]: 183 mg/dL | PHOSPHORUS [6]: 12.1 mg/dL | POTASSIUM [6]: 8 MEQ/L | SODIUM [6]: 147.5 MEQ/L | TOTAL PROTEIN [6]: 7.6 G/DL
